# Measurements published in the NIST ThermoML archive (doi:10.1016/j.jct.2016.12.036).
# ± gives the expanded uncertainty stated by the source.
# Legend:
# [1] = 298.15 K, 81.5 kPa, Liquid; for viscosity: Capillary tube (Ostwald / Ubbelohde) method; for mass density: Vibrating tube method
# [2] = refractive index (Na D-line) (dimensionless); conditions: 298.15 K; 81.5 kPa; Liquid; Standard Abbe refractometry
# [3] = excess molar enthalpy (molar enthalpy of mixing); xn = mol fraction of the nth substance listed; conditions: 298 K, 81.5 kPa, Liquid, Isoperibol calorimetry
smiles,measurement,setting,value
CCCCO [butan-1-ol],viscosity,[1],2.572 ± 0.055 mPa·s
same,mass density,[1],806 ± 1 kg/m3
same,refractive index,[2],1.3967 ± 0.001
CCC(C)O (stereo not given) [butan-2-ol],viscosity,[1],3.05 ± 0.067 mPa·s
same,mass density,[1],802.5 ± 1 kg/m3
same,refractive index,[2],1.3945 ± 0.0011
"NCCN [ethane-1,2-diamine]",viscosity,[1],1.385 ± 0.029 mPa·s
same,mass density,[1],892.8 ± 1 kg/m3
same,refractive index,[2],1.4537 ± 0.0011
"NCCN [ethane-1,2-diamine] + CC(C)O",excess molar enthalpy,[3]; x1 = 0.1001,-0.209 ± 0.00263 kcal/mol
same,excess molar enthalpy,[3]; x1 = 0.2,-0.372 ± 0.00478 kcal/mol
same,excess molar enthalpy,[3]; x1 = 0.3007,-0.462 ± 0.00574 kcal/mol
same,excess molar enthalpy,[3]; x1 = 0.4033,-0.478 ± 0.00598 kcal/mol
same,excess molar enthalpy,[3]; x1 = 0.5073,-0.435 ± 0.0055 kcal/mol
same,excess molar enthalpy,[3]; x1 = 0.5963,-0.363 ± 0.00454 kcal/mol
same,excess molar enthalpy,[3]; x1 = 0.6988,-0.275 ± 0.00359 kcal/mol
same,excess molar enthalpy,[3]; x1 = 0.7998,-0.179 ± 0.00232 kcal/mol
same,excess molar enthalpy,[3]; x1 = 0.8998,-0.0844 ± 0.0012 kcal/mol
"NCCN [ethane-1,2-diamine] + CCC(C)O",excess molar enthalpy,[3]; x1 = 0.0999,-0.204 ± 0.00263 kcal/mol
same,excess molar enthalpy,[3]; x1 = 0.1999,-0.369 ± 0.00454 kcal/mol
same,excess molar enthalpy,[3]; x1 = 0.3009,-0.461 ± 0.00574 kcal/mol
same,excess molar enthalpy,[3]; x1 = 0.4025,-0.473 ± 0.00598 kcal/mol
same,excess molar enthalpy,[3]; x1 = 0.5055,-0.424 ± 0.00526 kcal/mol
same,excess molar enthalpy,[3]; x1 = 0.6098,-0.338 ± 0.0043 kcal/mol
same,excess molar enthalpy,[3]; x1 = 0.6982,-0.237 ± 0.00311 kcal/mol
same,excess molar enthalpy,[3]; x1 = 0.7999,-0.143 ± 0.00189 kcal/mol
same,excess molar enthalpy,[3]; x1 = 0.9,-0.0601 ± 0.000908 kcal/mol
"NCCN [ethane-1,2-diamine] + CCCCO",excess molar enthalpy,[3]; x1 = 0.1003,-0.275 ± 0.00359 kcal/mol
same,excess molar enthalpy,[3]; x1 = 0.2002,-0.486 ± 0.00598 kcal/mol
same,excess molar enthalpy,[3]; x1 = 0.3011,-0.594 ± 0.00741 kcal/mol
same,excess molar enthalpy,[3]; x1 = 0.4024,-0.6 ± 0.00741 kcal/mol
same,excess molar enthalpy,[3]; x1 = 0.5053,-0.535 ± 0.00669 kcal/mol
same,excess molar enthalpy,[3]; x1 = 0.6097,-0.428 ± 0.00526 kcal/mol
same,excess molar enthalpy,[3]; x1 = 0.6983,-0.312 ± 0.00406 kcal/mol
same,excess molar enthalpy,[3]; x1 = 0.8,-0.192 ± 0.00239 kcal/mol
same,excess molar enthalpy,[3]; x1 = 0.8999,-0.0853 ± 0.00122 kcal/mol
"NCCN [ethane-1,2-diamine] + CCCO",excess molar enthalpy,[3]; x1 = 0.1,-0.307 ± 0.00406 kcal/mol
same,excess molar enthalpy,[3]; x1 = 0.199,-0.529 ± 0.00669 kcal/mol
same,excess molar enthalpy,[3]; x1 = 0.3043,-0.65 ± 0.00813 kcal/mol
same,excess molar enthalpy,[3]; x1 = 0.4066,-0.66 ± 0.00813 kcal/mol
same,excess molar enthalpy,[3]; x1 = 0.5106,-0.594 ± 0.00741 kcal/mol
same,excess molar enthalpy,[3]; x1 = 0.5944,-0.507 ± 0.00621 kcal/mol
same,excess molar enthalpy,[3]; x1 = 0.697,-0.387 ± 0.00478 kcal/mol
same,excess molar enthalpy,[3]; x1 = 0.7983,-0.254 ± 0.00335 kcal/mol
same,excess molar enthalpy,[3]; x1 = 0.8996,-0.121 ± 0.00167 kcal/mol
"NCCN [ethane-1,2-diamine] + CCO",excess molar enthalpy,[3]; x1 = 0.1003,-0.354 ± 0.00454 kcal/mol
same,excess molar enthalpy,[3]; x1 = 0.201,-0.6 ± 0.00741 kcal/mol
same,excess molar enthalpy,[3]; x1 = 0.301,-0.72 ± 0.00884 kcal/mol
same,excess molar enthalpy,[3]; x1 = 0.4042,-0.735 ± 0.00908 kcal/mol
same,excess molar enthalpy,[3]; x1 = 0.4958,-0.688 ± 0.0086 kcal/mol
same,excess molar enthalpy,[3]; x1 = 0.5987,-0.584 ± 0.00717 kcal/mol
same,excess molar enthalpy,[3]; x1 = 0.7006,-0.452 ± 0.00574 kcal/mol
same,excess molar enthalpy,[3]; x1 = 0.8007,-0.305 ± 0.00382 kcal/mol
same,excess molar enthalpy,[3]; x1 = 0.8987,-0.153 ± 0.00208 kcal/mol
"NCCN [ethane-1,2-diamine] + CO",excess molar enthalpy,[3]; x1 = 0.0995,-0.486 ± 0.00621 kcal/mol
same,excess molar enthalpy,[3]; x1 = 0.1972,-0.831 ± 0.0103 kcal/mol
same,excess molar enthalpy,[3]; x1 = 0.295,-1.01 ± 0.0124 kcal/mol
same,excess molar enthalpy,[3]; x1 = 0.3909,-1.05 ± 0.0129 kcal/mol
same,excess molar enthalpy,[3]; x1 = 0.4934,-0.976 ± 0.012 kcal/mol
same,excess molar enthalpy,[3]; x1 = 0.5948,-0.834 ± 0.0103 kcal/mol
same,excess molar enthalpy,[3]; x1 = 0.6953,-0.655 ± 0.00813 kcal/mol
same,excess molar enthalpy,[3]; x1 = 0.7971,-0.449 ± 0.00574 kcal/mol
same,excess molar enthalpy,[3]; x1 = 0.8994,-0.225 ± 0.00311 kcal/mol
CCO [ethanol],viscosity,[1],1.093 ± 0.023 mPa·s
same,mass density,[1],785.2 ± 1 kg/m3
same,refractive index,[2],1.3588 ± 0.001
CO [methanol],viscosity,[1],0.573 ± 0.012 mPa·s
same,mass density,[1],786.7 ± 1 kg/m3
same,refractive index,[2],1.3263 ± 0.0011
CCCO [propan-1-ol],viscosity,[1],1.943 ± 0.041 mPa·s
same,mass density,[1],799.5 ± 1 kg/m3
same,refractive index,[2],1.3825 ± 0.001
CC(C)O [propan-2-ol],viscosity,[1],2.067 ± 0.044 mPa·s
same,mass density,[1],781 ± 1 kg/m3
same,refractive index,[2],1.3745 ± 0.0011
